According to patent US20030077628A1, “Method of screening compounds for biological activity” (priority 2002, published 2003):

Biological target: receptor B-subunit derived from the Escherichia coli O157 toxin (Bacteriophage H30, UniProt P69178)
Type: binding
Conditions: pH 7

receptor B-subunit derived from the Escherichia coli O157 toxin, sequence (P69178 21-89 limits assumed): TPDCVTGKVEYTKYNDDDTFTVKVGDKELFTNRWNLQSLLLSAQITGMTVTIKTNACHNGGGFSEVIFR

SMILES: OC[C@H]1O[C@H](O[C@@H]2[C@H](O)[C@@H](O)[C@H](O[C@H]3[C@H](O)[C@@H](O)C(O)O[C@@H]3CO)O[C@@H]2CO)[C@H](O)[C@@H](O)[C@H]1O (some centres unmarked) [Galα1-4Galβ1-4Glc]
- change of ligand resonances (one-bond 13C-1H splittings) in the presence of the receptor: shifted

SMILES: OC[C@H]1O[C@@H](O[C@H]2[C@H](O)[C@@H](O)C(O)O[C@@H]2CO)[C@H](O)[C@@H](O)[C@H]1O (some centres unmarked) [Galβ1-4Glc, lactose]
- change of ligand resonances (one-bond 13C-1H splittings) in the presence of the receptor: unchanged
